Laboratory results as given in publication PMC8272148, “Antioxidant Serine-(NSAID) Hybrids with Anti-Inflammatory and Hypolipidemic Potency” (Molecules, 2021).
Values joined by “and” are separate entries in the source; they are usually repeats but may differ in a detail not shown here. Equal values may be shown once. Marks after values point to notes of the source that are not given here.

What was measured:
[1] = target: T1, soybean lipoxygenase 1-B (Glycine max, UniProt P08170); test: In vitro inhibition of soybean lipoxygenase; format: biochemical; conditions: linoleic acid (100 μM) as substrate, after 7 min of incubation; for inhibition at 100 µM: 100 μM compound, read-out: Lipoxygenase percent inhibition at 100 μM
T1 sequence (P08170 1-839): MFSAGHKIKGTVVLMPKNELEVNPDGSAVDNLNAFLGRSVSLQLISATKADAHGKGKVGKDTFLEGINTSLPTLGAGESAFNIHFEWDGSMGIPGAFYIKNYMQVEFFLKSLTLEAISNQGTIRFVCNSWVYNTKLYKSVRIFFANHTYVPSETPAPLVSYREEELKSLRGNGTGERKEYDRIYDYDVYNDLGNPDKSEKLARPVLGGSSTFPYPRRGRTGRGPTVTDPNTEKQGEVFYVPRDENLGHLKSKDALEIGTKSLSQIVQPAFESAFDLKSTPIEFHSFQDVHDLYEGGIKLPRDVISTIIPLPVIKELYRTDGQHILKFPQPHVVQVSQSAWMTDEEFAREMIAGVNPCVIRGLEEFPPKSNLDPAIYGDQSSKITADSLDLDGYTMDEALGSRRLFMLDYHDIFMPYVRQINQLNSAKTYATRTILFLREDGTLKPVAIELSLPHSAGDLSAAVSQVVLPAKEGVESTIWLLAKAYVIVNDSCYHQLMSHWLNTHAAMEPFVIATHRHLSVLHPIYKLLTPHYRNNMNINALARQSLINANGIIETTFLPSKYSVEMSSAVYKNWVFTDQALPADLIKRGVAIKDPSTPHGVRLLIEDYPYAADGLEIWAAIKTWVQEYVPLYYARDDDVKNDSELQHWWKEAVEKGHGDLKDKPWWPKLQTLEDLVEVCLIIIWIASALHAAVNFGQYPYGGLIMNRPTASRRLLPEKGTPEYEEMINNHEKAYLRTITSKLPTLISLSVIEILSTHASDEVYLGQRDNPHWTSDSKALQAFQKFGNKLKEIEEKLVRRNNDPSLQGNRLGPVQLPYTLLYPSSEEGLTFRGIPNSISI
Method: The reaction mixture contained the test compounds, dissolved in absolute ethanol (0.1 mL) at various concentrations, or the solvent (control, 0.1 mL), soybean lipoxygenase dissolved in 0.9% NaCl solution (250 u/mL, 0.2 mL) and sodium linoleate (100 μM) in Tris–HCl buffer, pH 9.0 (2.7 mL). The reaction was followed for 7 min at 28 °C, recording the absorbance of a conjugated diene structure at 234 nm, due to the formation of 13-hydroperoxy-linoleic acid. […] For the estimation of the type of inhibition, the above experiments were repeated, using sodium linoleate at 1 mM, which is higher than the saturating substrate concentration.

[2] = test system: rat hepatic microsomal membrane lipid peroxidation; test: Inhibition of rat hepatic microsomal membrane lipid peroxidation (ferrous ascorbate induced, TBA reactive material); format: biochemical; conditions: after 45 min of incubation; for IC50: rat hepatic microsomal membrane; for Inhibition of Lipid Peroxidation, percent at 1 mM: 1 mM compound
Method: The peroxidation of the heat-inactivated rat hepatic microsomal fraction was induced by ferrous ascorbate. The studied compounds, in dimethylsulfoxide, were added at concentrations of 1 μM–1 mM. Aliquots were taken from the incubation mixture (37 °C) for 45 min. Lipid peroxidation was assessed spectrophotometrically (535/600 nm) as a 2-thiobarbituric acid reactive material. The incubation mixture and solvents were found not to interfere with the assay.

[3] = test system: carrageenan-induced rat paw edema; test: Carrageenan-induced rat paw edema; format: in vivo, Wistar rats; conditions: ip, 0.15 mmol/kg i.p., 3.5 h after carrageenan, vs controls, read-out: % Edema Reduction
Method: An amount of 0.1 mL of an aqueous carrageenan solution (1% w/v) was injected into the hind paw of adult Wistar rats (6 rats were used for each compound). The tested compounds (in water with a few drops of Tween 80) were administered i.p. (0.15 mmol/kg) 5 min before the carrageenan administration. The produced edema, after 3.5 h, was estimated as paw weight increase.

[4] = Interaction with the stable radical DPPH; conditions: DPPH 200 μM, after 30 min
Method: Compounds, dissolved in absolute ethanol, at concentrations of 25–200 μM, were added to an equal volume of an ethanolic solution of DPPH (final concentration 200 μM) at room temperature (22 ± 2 °C). Absorbance (517 nm) was recorded after 30 min [26]. For the calculation of percent interaction, the residual absorbance of DPPH Ai (at a fixed concentration) after its interaction with the examined compounds (at various concentrations) was compared with the control absorbance Ao, without the addition of compounds, following the equation: (1) Percent interaction=100−(Ai/Ao×100)

[5] = test system: Triton WR1339 (tyloxapol)-induced hyperlipidemia; test: Triton WR1339 (tyloxapol)-induced hyperlipidemia in rats; format: in vivo, Wistar rats; conditions: 150 μmol/kg i.p., rat plasma, 24 h, tyloxapol 200 mg/kg i.p.
Method: The examined compounds (0.15 mmol/kg) were administered i.p. one hour later. Blood was taken from the aorta after 24 h, for the determination of plasma total cholesterol, LDL cholesterol and triglyceride concentration, using commercial kits.

| Structure (SMILES) | inhibition at 100 µM [1] [%] | IC50 [2] [µM] | inhibition in vivo at 150 µmol/kg [3] [%] | Percent Interaction with DPPH ([4]; compound 25 μM) [%] | Percent Interaction with DPPH ([4]; compound 50 μM) [%] | Percent Interaction with DPPH ([4]; compound 100 μM) [%] | Percent Interaction with DPPH ([4]; compound 200 μM) | Inhibition of Lipid Peroxidation, percent at 1 mM [2] [%/1 mM] | % Reduction LDL-C (LDL cholesterol) [5] | % Reduction TC (total cholesterol) [5] | % Reduction TG (triglycerides) [5] | IC50 [1] [µM] | Inhibition of Lipid Peroxidation, percent at 500 μM ([2]; 500 μM compound) [%/500 μM] | Inhibition of Lipid Peroxidation, percent at 50 μM ([2]; 50 μM compound) [%/50 μM] |
| --- | --- | --- | --- | --- | --- | --- | --- | --- | --- | --- | --- | --- | --- | --- |
| Cc1c(C)c2c(c(C)c1O)CCC(C)(C(=O)NC(CO)C(=O)O)O2 (centres unmarked) [Compound 1, 3-Hydroxy-2-(6-hydroxy-2,5,7,8-tetramethylchroman-2-carboxamido)propanoic acid] | 30 | 150 | 43 | 19.6 | 48.0 | 87.0 | 90.4% |  |  |  |  |  |  |  |
| CC(C)(C)c1cc(C(=O)NC(CO)C(=O)O)cc(C(C)(C)C)c1O (centres unmarked) [Compound 2, 2-(3,5-Di-tert-butyl-4-hydroxybenzamido)-3-hydroxypropanoic acid] | 15 |  | 44 |  |  |  | lower than 10% | 40 |  |  |  |  |  |  |
| CC(C)(C)c1cc(/C=C/C(=O)NC(CO)C(=O)O)cc(C(C)(C)C)c1O (centres unmarked) [Compound 3, (E)-2-(3-(3,5-di-tert-butyl-4-hydroxyphenyl)acrylamido)-3-hydroxypropanoic acid] | 20 | 80 | 27 | 12.9 | 17.4 | 35.9 | 82.3% |  |  |  |  |  |  |  |
| CCOC(=O)C(CO)NC(=O)C1(C)CCc2c(C)c(O)c(C)c(C)c2O1 (centres unmarked) [Compound 4, Ethyl 3-hydroxy-2-(6-hydroxy-2,5,7,8-tetramethylchroman-2-carboxamido)propanoate] | 15 | 7.3 | 37 | 24.5 | 53.3 | 88.2 | 92.4% |  | 60.2 * % | 46.2 ** % | 53.4 ** % |  |  |  |
| CCOC(=O)C(CO)NC(=O)c1cc(C(C)(C)C)c(O)c(C(C)(C)C)c1 (centres unmarked) [Compound 5, Ethyl 2-(3,5-di-tert-butyl-4-hydroxybenzamido)-3-hydroxypropanoate] |  | 163 | 47 |  |  |  | lower than 10% |  | 66.0 ** % | 52.3 ** % | 62.0 ** % | 200 |  |  |
| CCOC(=O)C(CO)NC(=O)/C=C/c1cc(C(C)(C)C)c(O)c(C(C)(C)C)c1 (centres unmarked) [Compound 6, (E)-ethyl 2-(3-(3,5-di-tert-butyl-4-hydroxyphenyl)acrylamido)-3-hydroxypropanoate] |  | 22 | 44 | 17.9 | 21.2 | 48.6 | 88.7% |  |  |  |  | 156 |  |  |
| CCOC(=O)C(COC(=O)C(C)c1ccc(CC(C)C)cc1)NC(=O)C1(C)CCc2c(C)c(O)c(C)c(C)c2O1 (centres unmarked) [Compound 7, Ethyl 2-(6-hydroxy-2,5,7,8-tetramethylchroman-2-carboxamido)-3-((2-(4-isobutylphenyl)propanoyl)oxy)propanoate] | < 15 | 3.4 | 45 | 22.6 | 54.2 | 89.0 | 91.6% |  |  |  |  |  |  |  |
| CCOC(=O)C(COC(=O)C(C)c1ccc(CC(C)C)cc1)NC(=O)c1cc(C(C)(C)C)c(O)c(C(C)(C)C)c1 (centres unmarked) [Compound 8, Ehyl 2-(3,5-di-tert-butyl-4-hydroxybenzamido)-3-((2-(4-isobutylphenyl)propanoyl)oxy)propanoate] |  |  | 48 |  |  | 4.0 | 18.7% |  |  |  |  | 13 | 30 |  |
| CCOC(=O)C(COC(=O)C(C)c1ccc(CC(C)C)cc1)NC(=O)/C=C/c1cc(C(C)(C)C)c(O)c(C(C)(C)C)c1 (centres unmarked) [Compound 9, (E)-ethyl 2-(3-(3,5-di-tert-butyl-4-hydroxyphenyl)acrylamido)-3-((2-(4-isobutylphenyl)propanoyl)oxy)propanoate] |  |  | 52 | 15.5 | 31.8 | 58.0 | 90.9% |  | 70% and 70.1 * % | 61% and 61.2 ** % | 52% and 52.1 ** % | 80 |  | 20 |
| CCOC(=O)C(COC(=O)C(C)c1cccc(C(=O)c2ccccc2)c1)NC(=O)C1(C)CCc2c(C)c(O)c(C)c(C)c2O1 (centres unmarked) [Compound 10, Ethyl 3-((2-(3-benzoylphenyl)propanoyl)oxy)-2-(6-hydroxy-2,5,7,8-tetramethylchroman-2-carboxamido)propanoate] | 23 | 2.8 | 42 | 12.4 | 30.1 | 64.6 | 87.0% |  |  |  |  |  |  |  |
| CCOC(=O)C(COC(=O)C(C)c1cccc(C(=O)c2ccccc2)c1)NC(=O)c1cc(C(C)(C)C)c(O)c(C(C)(C)C)c1 (centres unmarked) [Compound 11, Ethyl 3-((2-(3-benzoylphenyl)propanoyl)oxy)-2-(3,5-di-tert-butyl-4-hydroxybenzamido)propanoate] |  |  | 67 |  |  |  | lower than 10% | 30 | 51.2 ** % | 57.6 ** % | 44.5 * % | 86 |  |  |
| CC(C)Cc1ccc(C(C)C(=O)O)cc1 (centres unmarked) [Ibuprofen, ibuprofen, reference compound] |  |  | 36 |  |  |  |  |  |  |  |  |  |  |  |
| CC(C(=O)O)c1cccc(C(=O)c2ccccc2)c1 (centres unmarked) [Ketoprofen, ketoprofen, reference compound] |  |  |  |  |  |  |  |  |  |  |  | 220 |  |  |
| Cc1c(C)c2c(c(C)c1O)CCC(C)(C(=O)O)O2 (centres unmarked) [Trolox, 6-hydroxy-2,5,7,8-tetramethylchroman-2-carboxylic acid, reference compound] |  | 25 |  | 22.0 | 38.0 | 90.0 | 92.0% |  |  |  |  | > 300 |  |  |
